Measured values taken from paper PMC7956620 (Molecules, 2021).

Target: T1, 5-HT3A receptor R92A mutant (Homo sapiens, UniProt P46098, R87A)
T1 construct: host or cells: Xenopus laevis oocytes injected with in vitro transcribed mRNA
T1 sequence (P46098 24-478 R87A): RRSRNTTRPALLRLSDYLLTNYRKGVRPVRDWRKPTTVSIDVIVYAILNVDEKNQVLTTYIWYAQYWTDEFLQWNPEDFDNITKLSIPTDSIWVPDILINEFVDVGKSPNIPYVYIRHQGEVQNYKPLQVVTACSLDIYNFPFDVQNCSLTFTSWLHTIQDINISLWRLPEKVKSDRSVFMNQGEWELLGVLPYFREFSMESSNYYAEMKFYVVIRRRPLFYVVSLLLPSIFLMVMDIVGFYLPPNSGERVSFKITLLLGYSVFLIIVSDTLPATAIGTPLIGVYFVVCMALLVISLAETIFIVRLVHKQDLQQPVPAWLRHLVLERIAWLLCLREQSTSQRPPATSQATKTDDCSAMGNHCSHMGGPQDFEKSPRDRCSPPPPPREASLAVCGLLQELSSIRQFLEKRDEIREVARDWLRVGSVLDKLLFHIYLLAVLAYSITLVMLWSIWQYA
Test: two-electrode voltage clamp, R92A mutant receptor in Xenopus oocytes
Type: cell-based
Settings: 100 µM chanoclavine, read-out: Inhibition Percentage (%)
Procedure: The site-directed mutation of one or two amino acids was performed using sense and antisense primers and Pfu polymerase (QuickChange Site-Directed Mutagenesis Kit; Agilent, Santa Clara, CA, USA) and amplified by polymerase chain reaction (PCR) to increase the target domain. After removing the existing methylated cDNA using Dpn Ⅰ, the PCR products were transformed into Escherichia coli strain DH5α. The cDNA of the 5-HT3A receptor was linearized by Xho Ⅰ at the end of the multi-cloning site, followed by transcription using T7 polymerase and a transcription kit (mMESSAGE mMACHINE T7 Transcription Kit; Thermo Fisher Scientific, Waltham, MA, USA). […]
To isolate oocytes, female Xenopus laevis were put into a container filled with ice and left for about one hour. […] When the Xenopus oocytes were ready for injection, 50 ng of mRNA was injected with a nanoliter injector (Drummond Scientific, Vernon Hills, IL, USA). […]
The oocytes in which mRNA was expressed during the incubation period allowed for the estimation of channel or receptor properties for observing drug and ligand potential interactions using a two-electrode voltage clamp (OC-725C; Warner Instruments, Hamden, CT, USA) and Digidata (1322A; Molecular Devices, Sunnyvale, CA, USA). […] The voltage and current electrodes were filled with 3 M KCl (0.3–0.7 MΩ) and analyzed at a −80 mV holding potential. […]

Compound: CN[C@@H]1Cc2c[nH]c3cccc(c23)[C@H]1/C=C(\C)CO [chanoclavine]
- inhibition at 100 µM: 95.45 ± 0.3%
